The target of experiment [1] is T1, PR-B (Homo sapiens, UniProt P06401).
T1 construct: expressed in transfected cells
T1 sequence (P06401 1-933): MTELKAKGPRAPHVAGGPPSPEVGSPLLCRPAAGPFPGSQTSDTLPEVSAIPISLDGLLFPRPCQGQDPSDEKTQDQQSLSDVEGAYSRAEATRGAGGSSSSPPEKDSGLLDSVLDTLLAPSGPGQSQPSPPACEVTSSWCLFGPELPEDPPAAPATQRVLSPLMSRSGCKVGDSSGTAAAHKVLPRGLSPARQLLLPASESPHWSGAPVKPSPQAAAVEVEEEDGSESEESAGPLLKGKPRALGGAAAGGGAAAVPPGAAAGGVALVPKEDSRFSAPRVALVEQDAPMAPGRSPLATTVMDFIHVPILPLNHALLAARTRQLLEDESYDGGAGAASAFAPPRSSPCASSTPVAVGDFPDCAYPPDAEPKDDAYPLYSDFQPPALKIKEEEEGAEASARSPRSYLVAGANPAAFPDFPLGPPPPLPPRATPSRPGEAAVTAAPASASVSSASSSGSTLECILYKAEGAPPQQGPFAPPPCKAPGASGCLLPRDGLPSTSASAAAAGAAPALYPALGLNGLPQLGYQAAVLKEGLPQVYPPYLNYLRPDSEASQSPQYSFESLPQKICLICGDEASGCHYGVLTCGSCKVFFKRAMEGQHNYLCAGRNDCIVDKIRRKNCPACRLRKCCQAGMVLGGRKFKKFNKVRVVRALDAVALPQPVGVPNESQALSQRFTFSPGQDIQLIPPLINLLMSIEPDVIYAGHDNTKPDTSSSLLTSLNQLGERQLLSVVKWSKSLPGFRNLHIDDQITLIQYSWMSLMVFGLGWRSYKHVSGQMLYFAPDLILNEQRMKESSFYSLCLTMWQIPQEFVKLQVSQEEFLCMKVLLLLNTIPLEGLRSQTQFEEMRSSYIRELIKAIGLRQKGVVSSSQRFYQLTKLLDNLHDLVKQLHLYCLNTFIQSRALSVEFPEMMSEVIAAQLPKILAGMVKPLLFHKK
Kind of experiment: Transactivation test on antagonistic activity on PR-B. The format is cell-based. Here is the method:
(§1) The transactivation assay is carried out as described in WO 02/054064.

For experiment [2], the target named is T2, PR-A (Homo sapiens, UniProt P06401).
T2 construct: expressed in transfected cells
T2 sequence (P06401 1-769 isoform P06401-2): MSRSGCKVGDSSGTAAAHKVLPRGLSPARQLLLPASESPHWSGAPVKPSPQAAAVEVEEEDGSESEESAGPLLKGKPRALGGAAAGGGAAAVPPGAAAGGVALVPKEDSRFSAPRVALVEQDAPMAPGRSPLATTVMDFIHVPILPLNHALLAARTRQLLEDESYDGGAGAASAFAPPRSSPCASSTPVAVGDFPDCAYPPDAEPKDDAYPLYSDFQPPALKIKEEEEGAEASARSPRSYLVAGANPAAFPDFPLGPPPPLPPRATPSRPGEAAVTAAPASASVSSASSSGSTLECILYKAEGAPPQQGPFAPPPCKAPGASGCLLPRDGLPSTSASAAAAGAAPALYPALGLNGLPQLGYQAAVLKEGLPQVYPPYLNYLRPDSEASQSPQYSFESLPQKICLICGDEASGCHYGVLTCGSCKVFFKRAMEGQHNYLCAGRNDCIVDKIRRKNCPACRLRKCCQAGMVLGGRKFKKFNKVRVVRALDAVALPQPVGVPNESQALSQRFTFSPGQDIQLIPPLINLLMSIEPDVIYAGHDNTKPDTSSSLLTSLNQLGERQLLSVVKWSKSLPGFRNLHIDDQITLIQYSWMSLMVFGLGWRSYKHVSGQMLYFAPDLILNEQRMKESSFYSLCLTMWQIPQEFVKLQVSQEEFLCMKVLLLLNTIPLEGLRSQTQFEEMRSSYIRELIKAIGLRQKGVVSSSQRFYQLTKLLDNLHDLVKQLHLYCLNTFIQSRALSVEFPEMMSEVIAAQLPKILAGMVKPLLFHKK
Kind of experiment: Transactivation test on antagonistic activity at PR-A. It counts as cell-based. The note with it: for IC50: antagonism at PR-A; for Emax: read-out: Efficacy (antagonism at PR-A) [%]. Here is the method: as §1

Where [3] appears, read: antagonistic activity on PR-B, read-out: IC50.

Read-outs that look alike come from different tables or passages of the source.

A word on the IC50: it is the concentration needed to halve the response being measured. Regarding `N#Cc1ccc(NC(=O)C(O)(Cc2ccccc2)C2CCCC2)cc1Cl` (racemic) [Example 32, rac-N-(3-Chloro-4-cyanophenyl)-2-cyclopentyl-2-hydroxy-3-phenylpropionamide], the IC50 in experiment [1] (setting [3]) stood at 27 nM.
For `N#Cc1ccc(NC(=O)C(O)(Cc2ccccc2)C2CCCCC2)cc1Cl` (racemic) [Example 3, rac-N-(3-Chloro-4-cyanophenyl)-2-hydroxy-2-cyclohexyl-3-phenylpropanamide], it took 5.6 nM to reach half-maximal inhibition in experiment [1] (IC50).
Turning to `N#Cc1ccc(NC(=O)C(O)(C#Cc2ccc(O)cc2)C2CCCCC2)cc1Cl` (racemic) [Example 10, rac-N-(3-Chloro-4-cyanophenyl)-2-hydroxy-2-cyclohexyl-2-(4-hydroxyphenyl)-ethynylacetamide], in experiment [1], the IC50 came out at 7 nM.
Regarding “rac-N-(3-Chloro-4-cyanophenyl)-2-hydroxy-2-cyclohexyl-2-(4-trifluoromethyl-phenyl)ethynylacetamide [Example 5]”, the IC50 in experiment [1] (setting [3]) was determined as 7.9 nM.
The same measure, in the same setting: the value for “rac-N-(3-Chloro-4-cyanophenyl)-2-hydroxy-2-cyclohexyl-2-(4-fluorophenyl)-ethynylacetamide [Example 6]” was 5 nM; that for `N#Cc1ccc(NC(=O)C(O)(C#Cc2ccccc2)C2CCCCC2)cc1Cl` (single isomer, unassigned; (-)) [Example 2b, (−)-N-(3-chloro-4-cyanophenyl)-2-hydroxy-2-cyclohexyl-2-phenylethynylacetamide] was 1.8 nM; that for `N#Cc1ccc(NC(=O)C(O)(Cc2ccccc2)C2CCCC2)cc1C(F)(F)F` (racemic) [Example 39, rac-N-(4-Cyano-3-trifluoromethylphenyl)-2-cyclopentyl-2-hydroxy-3-phenyl-propionamide] was 17 nM.
For `N#Cc1ccc(NC(=O)C(O)(Cc2cccc(-c3ccsc3)c2)C2CCCCC2)cc1C(F)(F)F` (centres unmarked) [Example 59, N-(4-Cyano-3-trifluoromethylphenyl)-2-cyclohexyl-2-hydroxy-3-(3-thiophen-3-ylphenyl)propionamide], in experiment [2], half-maximal inhibition (IC50) required 46.8 nM and the Emax was found to be 103%.
In the same order, the values of `N#Cc1ccc(NC(=O)C(O)(Cc2ccccc2)C2CCN(C(=O)c3ccno3)CC2)cc1C(F)(F)F` (single isomer, unassigned) [Example 113, N-(4-Cyano-3-trifluoromethylphenyl)-2-hydroxy-2-[1-(isoxazole-5-carbonyl)piperidin-4-yl]-3-phenyl-propionamide] are 21.7 nM and 97.9%.
On the same counts, the results for `CS(=O)(=O)N1CCC(C(O)(Cc2ccccc2)C(=O)Nc2ccc(C#N)c(C(F)(F)F)c2)CC1` (single isomer, unassigned) [Example 103, N-(4-Cyano-3-trifluoromethylphenyl)-2-hydroxy-2-(1-methanesulfonyl-piperidin-4-yl)-3-phenylpropionamide] are 48.8 nM and 98.5%.
`Cc1ccc(C#CC(O)(C(=O)Nc2ccc(C#N)c(Cl)c2)C2CCCCC2)cc1` (racemic) [Example 4, rac-N-(3-Chloro-4-cyanophenyl)-2-hydroxy-2-cyclohexyl-2-(4-methylphenyl)-ethynylacetamide] gave an IC50 in experiment [1] of 2 nM.
Still for that read-out and setting: for `N#Cc1ccc(NC(=O)C(O)(C#Cc2ccc(C(=O)O)cc2)C2CCCCC2)cc1Cl` (racemic) [Example 12, rac-N-(3-Chloro-4-cyanophenyl)-2-hydroxy-2-cyclohexyl-2-(4-carboxyphenyl)-ethynylacetamide] the value was 1.8 nM.
Turning to `N#Cc1ccc(NC(=O)C(O)(Cc2cccc(-c3cccc(C(N)=O)c3)c2)C2CCN(S(=O)(=O)c3ccc(F)cc3)CC2)cc1C(F)(F)F` (single isomer, unassigned) [Example 172, 3′-{2-(4-Cyano-3-trifluoromethyl-phenylcarbamoyl)-2-[1-(4-fluoro-benzenesulfonyl)piperidin-4-yl]-2-hydroxyethyl}biphenyl-3-carboxamide], in experiment [2], the IC50 came out at 1.2 nM and the Emax turned out to be 101%.
On the same counts, the results for `N#Cc1ccc(NC(=O)C(O)(Cc2cccc(O)c2)C2CCCCC2)cc1C(F)(F)F` (single isomer, unassigned) [Example 200b, N-(4-Cyano-3-trifluoromethylphenyl)-2-cyclohexyl-2-hydroxy-3-(3-hydroxy-phenyl)propionamide] are 5.66 nM and 98.5%.
For `COc1ccc(CC(O)(C(=O)Nc2ccc(C#N)c(Cl)c2)C2CCCCC2)cc1` (racemic) [Example 16, rac-N-(3-Chloro-4-cyanophenyl)-2-cyclohexyl-2-hydroxy-3-(4-methoxyphenyl)-propionamide], in experiment [1] (setting [3]), the IC50 was determined as 17 nM.
On to `N#Cc1ccc(NC(=O)C(O)(Cc2ccccc2)C2CCN(S(=O)(=O)c3cccc(Cl)c3)CC2)cc1C(F)(F)F` (single isomer, unassigned) [Example 111, 2-[1-(3-Chlorobenzenesulfonyl)-piperidin-4-yl]-N-(4-cyano-3-trifluoro-methylphenyl)-2-hydroxy-3-phenyl-propionamide], for which, in experiment [2], the IC50 is 4.17 nM and the Emax is 103%.
Regarding `N#Cc1ccc(NC(=O)C(O)(Cc2cccc(-c3ccc(C(=O)CO)cc3)c2)C2CCCCC2)cc1C(F)(F)F` (centres unmarked) [Example 78, N-(4-Cyano-3-trifluoromethylphenyl)-2-cyclohexyl-2-hydroxy-3-[4′-(2-hydroxy-acetyl)biphenyl-3-yl]propionamide], in experiment [2], inhibition was half-maximal at 55.7 nM (IC50) and the Emax was found to be 101%.
For `N#Cc1ccc(NC(=O)C(O)(Cc2cccc(-c3cccc(C(=O)N4CCOCC4)c3)c2)C2CCN(C(=O)c3ccccc3)CC2)cc1C(F)(F)F` (centres unmarked) [Example 162, 2-(1-Benzoylpiperidin-4-yl)-N-(4-cyano-3-trifluoromethylphenyl)-2-hydroxy-3-[3′-(morpholine-4-carbonyl)-biphenyl-3-yl]propionamide], in experiment [2], the IC50 came out at 44.1 nM and the Emax was 99%.

The values above are taken from patent US20090270381A1, “Non-steroidal progesterone receptor modulators” (priority 2007, published 2009).
